According to the supplement of paper PMC4862054:

Assays:
Details in all cases: 72 h
MDA-MB-453 [1] = test system: MDA-MB-453
Summary of the method: (§1)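 In this assay, breast cancer cell lines spent 72 h with compound at 5 concentrations in 10-fold steps over a compound-specific 10,000-fold range. The first readout was cell death by CellTox Green fluorescence, and the second was viability by CellTiter-Glo luminescence, each normalised per plate to 0.1 % DMSO and a positive kill control. EC50 came from the dose-response curves, censored at the top concentration.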

DU-4475 [2] = test system: DU-4475
Summary of the method: as §1

CAL-51 [3] = test system: CAL-51
Summary of the method: as §1

MDA-MB-453 [4] = test system: MDA-MB-453; remark: listed apart in the source
Summary of the method: (§2)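 Each 384-well plate was pre-loaded with compound dissolved in 5 µl medium, received breast cancer cells in 20 µl suspension, and was incubated 72 h. A 2.5 µl addition of CellTiter-Blue for 2 h at 37 °C was followed by a fluorescence read at 560/590 nm. Data were normalised per plate to vehicle and a positive kill control and checked by Z'-factor. EC50 was fitted from the percent-inhibition dose-response curve, censored at the highest concentration, excluding rows with a drug sensitivity score of zero.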

DU-4475 [5] = test system: DU-4475; remark: listed apart in the source
Summary of the method: as §2

CAL-148 = test system: CAL-148
Summary of the method: as §2

CAL-51 [6] = test system: CAL-51; remark: listed apart in the source
Summary of the method: as §2

CAL-85-1 = test system: CAL-85-1
Summary of the method: as §2

Structure (SMILES)	EC50, CellTiter-Glo (MDA-MB-453 [1])	EC50, CellTiter-Glo (DU-4475 [2])	EC50, CellTiter-Glo (CAL-51 [3])	EC50, CellTiter-Blue viability (MDA-MB-453 [4])	EC50, CellTiter-Blue viability (DU-4475 [5])	EC50, CellTiter-Blue viability (CAL-148)	EC50, CellTiter-Blue viability (CAL-51 [6])	EC50, CellTiter-Blue viability (CAL-85-1)
CC(=O)[C@]1(O)Cc2c(O)c3c(c(O)c2[C@@H](O[C@H]2C[C@H](N)[C@H](O)[C@H](C)O2)C1)C(=O)c1ccccc1C3=O [Idarubicin]	750 nM	193 nM	49.1 nM	396 nM	23.4 nM	18.7 nM	7.78 nM	240 nM
O=C(CCCCCCC(=O)Nc1ccccc1)NO [Vorinostat]	1180 nM	2300 nM	2180 nM	960 nM	9000 nM	3250 nM		3890 nM
CC(C)(C)NC(=O)[C@H]1CC[C@H]2[C@@H]3CC[C@H]4NC(=O)C=C[C@]4(C)[C@H]3CC[C@]12C [Finasteride]				7430 nM	5420 nM	8190 nM	8160 nM	
CCNC(=O)c1noc(-c2cc(C(C)C)c(O)cc2O)c1-c1ccc(CN2CCOCC2)cc1 [NVP-AUY922]	42.6 nM	33.1 nM	34 nM	15.3 nM	15.9 nM	19.4 nM	22.2 nM	18.8 nM
CN(Cc1cnc2nc(N)nc(N)c2n1)c1ccc(C(=O)N[C@@H](CCC(=O)O)C(=O)O)cc1 [Methotrexate]			19.6 nM			46.5 nM	84.8 nM	71.7 nM
CO[C@@H]1[C@H](N(C)C(=O)c2ccccc2)C[C@H]2O[C@]1(C)n1c3ccccc3c3c4c(c5c6ccccc6n2c5c31)C(=O)NC4 [Midostaurin]		562 nM	308 nM	92.3 nM	451 nM		182 nM	314 nM
CO[C@@]12[C@H](COC(N)=O)C3=C(C(=O)C(C)=C(N)C3=O)N1C[C@@H]1N[C@@H]12 [Mitomycin C]			1140 nM	3420 nM	5070 nM	2940 nM	5790 nM	3920 nM
C=CCn1c(=O)c2cnc(Nc3ccc(N4CCN(C)CC4)cc3)nc2n1-c1cccc(C(C)(C)O)n1 [MK1775]	66.3 nM	1740 nM	380 nM	310 nM	477 nM	242 nM	382 nM	507 nM
Nc1ccn([C@@H]2O[C@H](CO)[C@@H](O)C2(F)F)c(=O)n1 [Gemcitabine]	47.6 nM	20.7 nM	12.5 nM	103 nM	91.6 nM	18.8 nM	22 nM	87.4 nM
C/C(=C\c1csc(C)n1)[C@@H]1C[C@@H]2O[C@]2(C)CCC[C@H](C)[C@H](O)[C@@H](C)C(=O)C(C)(C)[C@@H](O)CC(=O)N1 [Ixabepilone]			23 nM	515 nM	642 nM	601 nM	> 1000 nM	947 nM
COc1cc(Nc2c(C#N)cnc3cc(OCCCN4CCN(C)CC4)c(OC)cc23)c(Cl)cc1Cl [Bosutinib]	3220 nM		1400 nM	2670 nM	5670 nM	1860 nM	5020 nM	3180 nM
CNC(=O)c1ccccc1Sc1ccc2c(/C=C/c3ccccn3)n[nH]c2c1 [Axitinib]			465 nM	657 nM	2250 nM	1880 nM	1620 nM	1250 nM
COc1ccc(S(=O)(=O)Nc2cccnc2Nc2ccc(O)cc2)cc1 [ABT-751]	149 nM	1510 nM	6520 nM	114 nM	1250 nM	949 nM	772 nM	290 nM
